Key:
Experiment in all cases: relative viability (nuclei count vs DMSO), 5 days (fraction); higher = more cells survive
[1] = compound: Cc1ccc(C(=O)Nc2ccc(CN3CCN(C)CC3)c(C(F)(F)F)c2)cc1C#Cc1cnc2cccnn12 [Ponatinib] + CC(=O)c1c(C)c2cnc(Nc3ccc(N4CCNCC4)cn3)nc2n(C2CCCC2)c1=O [Palbociclib] (partner 0.5 µM)
Summary of the method: (§1)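 Each reported value is a median over duplicate plates. It expresses relative viability: treated-well nuclei count divided by vehicle-well nuclei count. Lung cancer cell lines in 1536-well plates were dosed by pin tool a day after seeding, alone with one drug or with a fixed anchor-drug dose plus five library-drug doses (not always all listed) in √10 steps, and nuclei were counted after 5 days.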

[2] = compound: Cc1ccc(Nc2nccc(N(C)c3ccc4c(C)n(C)nc4c3)n2)cc1S(N)(=O)=O [Pazopanib] + Nc1ncn([C@H]2C[C@H](O)[C@@H](CO)O2)c(=O)n1 [Decitabine] (partner 2 µM)
Summary of the method: as §1

[3] = compound: Cc1ccc(C(=O)Nc2ccc(CN3CCN(C)CC3)c(C(F)(F)F)c2)cc1C#Cc1cnc2cccnn12 [Ponatinib] + NC(=O)Nc1cc(-c2cccc(F)c2)sc1C(=O)N[C@H]1CCCNC1 [AZD7762] (partner 0.2 µM)
Summary of the method: as §1

[4] = compound: Cc1ccc(Nc2nccc(N(C)c3ccc4c(C)n(C)nc4c3)n2)cc1S(N)(=O)=O [Pazopanib] + C[C@@H](Oc1cc(-c2cnn(C3CCNCC3)c2)cnc1N)c1c(Cl)ccc(F)c1Cl [Crizotinib] (partner 1 µM)
Summary of the method: as §1

Row | Cell Line | relative viability ([1]; first compound 0.002 µM) | relative viability ([1]; first compound 0.006325 µM) | relative viability ([1]; first compound 0.06325 µM) | relative viability ([1]; first compound 0.2 µM) | relative viability ([2]; first compound 0.01 µM) | relative viability ([2]; first compound 0.03162 µM) | relative viability ([2]; first compound 0.1 µM) | relative viability ([2]; first compound 0.3162 µM) | relative viability ([2]; first compound 1 µM) | relative viability ([3]; first compound 0.002 µM) | relative viability ([3]; first compound 0.006325 µM) | relative viability ([3]; first compound 0.06325 µM) | relative viability ([3]; first compound 0.2 µM) | relative viability ([4]; first compound 0.01 µM) | relative viability ([4]; first compound 0.03162 µM) | relative viability ([4]; first compound 0.1 µM) | relative viability ([4]; first compound 0.3162 µM) | relative viability ([4]; first compound 1 µM)
1 | NCI-H2342 | 0.548 | 0.522 | 0.461 | 0.498 | 0.678 | 0.684 | 0.918 | 0.612 | 0.697 | 0.436 | 0.457 | 0.467 | 0.456 | – | – | – | – | –
2 | HCC-15 | 0.675 | 0.752 | 0.798 | 0.672 | 0.53 | 0.712 | 0.572 | 0.59 | 0.827 | 1.18 | 1.19 | 1.32 | 1.31 | 0.773 | 0.924 | 1.01 | 0.813 | 0.893
3 | A-427 | 0.511 | 0.535 | 0.528 | 0.438 | 0.554 | 0.538 | 0.554 | 0.533 | 0.613 | 0.713 | 0.73 | 0.593 | 0.582 | 1.01 | 0.934 | 0.967 | 0.788 | 0.818
4 | NCI-H2228 | 0.587 | 0.647 | 0.728 | 0.593 | – | – | – | – | – | – | – | – | – | 0.51 | 0.446 | 0.402 | 0.496 | 0.366
5 | NCI-H1734 | 0.34 | 0.358 | 0.347 | 0.284 | 0.498 | 0.492 | 0.461 | 0.532 | 0.512 | 0.514 | 0.516 | 0.418 | 0.461 | 0.689 | 0.727 | 0.614 | 0.658 | 0.622
6 | NCI-H2347 | 0.504 | 0.441 | 0.451 | 0.404 | 0.68 | 0.555 | 0.673 | 0.732 | 0.666 | 0.747 | 0.75 | 0.626 | 0.662 | 0.885 | 0.643 | 0.662 | 0.691 | 0.842
7 | PC-3 [JPC-3] | – | 0.576 | 0.608 | 0.544 | – | 0.885 | 0.773 | 0.916 | 0.787 | – | 0.901 | 1 | 0.873 | 1.03 | 1.01 | 1.02 | 0.925 | 0.936
8 | NCI-H1915 | 0.522 | 0.554 | 0.523 | 0.466 | 0.244 | 0.264 | 0.263 | 0.261 | 0.291 | 0.553 | 0.697 | 0.591 | 0.651 | 0.875 | 0.974 | 0.911 | 0.847 | 0.79
9 | NCI-H1666 | 0.661 | 0.659 | 0.666 | 0.639 | 0.703 | 0.716 | 0.636 | 0.76 | 0.765 | 0.823 | 0.863 | 0.889 | 0.902 | 1.09 | 1 | 0.875 | 1.09 | 1.27
10 | HCC-366 | 0.339 | 0.361 | 0.423 | 0.361 | 0.384 | 0.302 | 0.378 | 0.326 | 0.473 | 0.247 | 0.271 | 0.146 | 0.119 | 0.508 | 0.485 | 0.478 | 0.528 | 0.63
11 | NCI-H1395 | 0.626 | 0.671 | 0.572 | 0.47 | 0.651 | 0.69 | 0.638 | 0.766 | 0.743 | 0.387 | 0.41 | 0.371 | 0.362 | – | – | – | – | –
12 | NCI-H727 | 0.737 | 0.708 | 0.769 | 0.654 | 0.724 | – | 0.879 | 0.885 | 1.02 | 0.508 | 0.575 | 0.567 | 0.576 | 0.98 | 0.787 | 1.15 | 0.831 | 1.08
13 | RERF-LC-KJ | 1.11 | 1.22 | 1.27 | 0.971 | 0.66 | 0.681 | 0.739 | 0.631 | 0.699 | 0.838 | 0.951 | 1.13 | 0.961 | 0.794 | 0.773 | 0.812 | 0.775 | 0.789
14 | Calu-6 | – | – | – | – | – | – | – | – | – | – | – | – | – | 0.853 | 0.821 | 0.81 | 0.764 | 0.762
15 | LC-2-ad | 0.474 | 0.448 | 0.359 | 0.347 | 0.88 | 0.644 | 0.915 | 0.85 | 0.776 | 0.833 | 0.858 | 0.977 | 0.872 | 0.483 | 0.462 | 0.467 | 0.423 | 0.467
16 | CAL-12T | 0.295 | 0.524 | 0.622 | 0.535 | – | – | – | – | – | 0.548 | 0.554 | 0.611 | 0.5 | 0.685 | 0.676 | 0.726 | 0.6 | 0.675
17 | SK-LU-1 | 0.378 | 0.415 | 0.342 | 0.353 | 0.568 | 0.611 | 0.633 | 0.632 | 0.665 | – | – | – | – | 0.952 | 1.02 | 1.14 | 0.976 | 0.852
18 | NCI-H1650 | 0.345 | 0.365 | 0.413 | 0.335 | 0.431 | 0.419 | 0.464 | 0.405 | 0.603 | – | – | – | – | 1.09 | 1 | 1 | 0.857 | 0.965
19 | BEN | 0.453 | 0.528 | 0.469 | 0.47 | 0.579 | 0.791 | 0.726 | 0.831 | 0.782 | 0.494 | 0.625 | 0.589 | 0.774 | 0.737 | 1.05 | 0.814 | 0.904 | 0.787
20 | EMC-BAC-2 | 0.469 | 0.486 | 0.476 | 0.42 | – | 1.01 | 0.999 | 0.974 | 1.16 | 0.996 | 1.05 | 1.13 | 0.989 | 0.735 | 0.786 | 0.649 | 0.782 | 0.749
